# Laboratory results: patent US9156831B2, “Chemical compounds” (ASTRAZENECA AB, priority 2013, dated 2015)
# Assays:
# Test in all cases: Cell proliferation assay (MTS)
# NAMALWA = type: cell-based, human
# Procedure: (§1) The sensitivity of a panel of human cancer cell lines to the effects of compounds was determined in a standard proliferation assay.
# (§2) Cells were plated in 96 well plates at densities of 1000-6000 cells per well in RPMI media containing 10% FBS. After incubation at 37° C. for 16 hours, various concentrations of compound were added to the assay plates. After incubation for an additional 72 h, the viable cells were determined by the addition of MTS reagent (Promega #3582) to each well for 2 h. […] The formazan product was then quantitated by absorbance at 490 nm, as an indicator of the relative number of live cells. In order to determine the GI50 (concentration at which growth of cells was inhibited by 50%) the relative number of cells present at the time of drug addition was determined by comparison with the MTS readout before the drug was added, and this value was subtracted from the 72 hr value of untreated cells as a measure of cell growth during the assay.
# CC20 = type: cell-based, human
# Procedure: as §1
# (§3) Cells were plated in 96 well plates at densities of 1000-6000 cells per well in RPMI media containing 10% FBS. After incubation at 37° C. for 16 hours, various concentrations of compound were added to the assay plates. After incubation for an additional 72 h, the viable cells were determined by the addition of MTS reagent (Promega #3582) to each well for 2 h. MTS is a tetrazolium salt that is bioreduced by metabolically active cells in the presence of an electron coupling reagent to formazan. The formazan product was then quantitated by absorbance at 490 nm, as an indicator of the relative number of live cells. In order to determine the GI50 (concentration at which growth of cells was inhibited by 50%) the relative number of cells present at the time of drug addition was determined by comparison with the MTS readout before the drug was added, and this value was subtracted from the 72 hr value of untreated cells as a measure of cell growth during the assay.
# MEC1 = type: cell-based, human
# Procedure: as §1, §3
# RT4 = type: cell-based, human
# Procedure: as §1, §2
# HCC1937 = type: cell-based, human
# Procedure: as §1, §3
# MCF7 = type: cell-based, human
# Procedure: as §1, §3
# HCA7 = type: cell-based, human
# Procedure: as §1, §2
# J82 = type: cell-based, human
# Procedure: as §1, §2
# HCT15 = type: cell-based, human
# Procedure: as §1, §3
# LOVO = type: cell-based, human
# Procedure: as §1, §3
# 22RV1 = type: cell-based, human
# Procedure: as §1, §3
# SKBR3 = type: cell-based, human
# Procedure: as §1, §3
# HS746T = type: cell-based, human
# Procedure: as §1, §3
# LK2 = type: cell-based, human
# Procedure: (§4) The sensitivity of a panel of human cancer cell lines to the effects of compounds was determined in a standard proliferation assay. Cell lines were sourced through the AstraZeneca Cell Bank.
# as §3
# KU1919 = type: cell-based, human
# Procedure: as §1, §3
# MDAMB436 = type: cell-based, human
# Procedure: as §1, §3
# TCCSUP = type: cell-based, human
# Procedure: as §1, §3
# HCC95 = type: cell-based, human
# Procedure: as §4, §3
# OCIAML2 = type: cell-based, human
# Procedure: as §1, §3
# AMO1 = type: cell-based, human
# Procedure: as §4, §3
# SKCO1 = type: cell-based, human
# Procedure: as §1, §2
# BT20 = type: cell-based, human
# Procedure: as §4, §3
# CAPAN1 = type: cell-based, human
# Procedure: as §1, §3
# SNU484 = type: cell-based, human
# Procedure: as §1, §3
# NUGC3 = type: cell-based, human
# Procedure: as §4, §3
# SNU886 = type: cell-based, human
# Procedure: as §1, §2
# A2058 = type: cell-based, human
# Procedure: as §1, §3
# HLF = type: cell-based, human
# Procedure: as §4, §3
# NOMO1 = type: cell-based, human
# Procedure: as §1, §3
# SNU5 = type: cell-based, human
# Procedure: as §1, §2
# COLO320DM = test system: COLO320DM
# Procedure: as §4, §3
# HT29 = type: cell-based, human
# Procedure: as §1, §2
# 2313287 = type: cell-based, human
# Procedure: as §4, §2
# 1A6 = type: cell-based, human
# Procedure: as §1, §3
# CALU3 = type: cell-based, human
# Procedure: as §4, §2
# QGY7703 = type: cell-based, human
# Procedure: as §1, §3
# H1299 = type: cell-based, human
# Procedure: as §1, §3
# HCCC9810 = type: cell-based, human
# Procedure: as §1, §3
# COLO205 = type: cell-based, human
# Procedure: as §1, §2
# MKN1 = type: cell-based, human
# Procedure: as §1, §3
# BEL7405 = type: cell-based, human
# Procedure: as §4, §3
# BT549 = type: cell-based, human
# Procedure: as §1, §2
# HPAC = type: cell-based, human
# Procedure: as §1, §3
# [1] = Homo sapiens, Blood/lymph, PIK3CA WT
# [2] = Homo sapiens, Stomach, PIK3CA WT
smiles,measurement,setting,value
"CCn1nc(C2CCN(C(=O)CCO)CC2)nc1-c1cnc(N)c(-c2nnc(C(C)(C)C)o2)n1 [Example 3, 1-(4-(5-(5-amino-6-(5-tert-butyl-1,3,4-oxadiazol-2-yl)pyrazin-2-yl)-1-ethyl-1H-1,2,4-triazol-3-yl)piperidin-1-yl)-3-hydroxypropan-1-one]",Category,NAMALWA,Resistant (resistant (GI50>1.0 μM))
same,GI50,NAMALWA; [1],17.6 µM
same,Category,CC20,Resistant (resistant (GI50>1.0 μM))
same,GI50,"CC20; Homo sapiens, Colon, PIK3CA WT",30 µM
same,Category,MEC1,Resistant (resistant (GI50>1.0 μM))
same,GI50,MEC1; [1],30 µM
same,Category,RT4,Resistant (resistant (GI50>1.0 μM))
same,GI50,"RT4; Homo sapiens, RT-4, Bladder, PIK3CA WT",8.94 µM
same,Category,HCC1937,Resistant (resistant (GI50>1.0 μM))
same,GI50,"HCC1937; Homo sapiens, Breast, PIK3CA WT",30 µM
same,Category,MCF7,Sensitive (sensitive (GI50<=1.0 μM))
same,GI50,"MCF7; Homo sapiens, Breast, PIK3CA MUT",0.309 µM
same,Category,HCA7,Resistant (resistant (GI50>1.0 μM))
same,GI50,"HCA7; Homo sapiens, HCA-7, Colon, PIK3CA WT",15.5 µM
same,Category,J82,Resistant (resistant (GI50>1.0 μM))
same,GI50,"J82; Homo sapiens, Bladder, PIK3CA MUT",13.4 µM
same,Category,HCT15,Resistant (resistant (GI50>1.0 μM))
same,GI50,"HCT15; Homo sapiens, HCT-15, Colon, PIK3CA MUT",7.27 µM
same,Category,LOVO,Resistant (resistant (GI50>1.0 μM))
same,GI50,"LOVO; Homo sapiens, Colon, PIK3CA WT",18.6 µM
same,Category,22RV1,Resistant (resistant (GI50>1.0 μM))
same,GI50,"22RV1; Homo sapiens, Prostate, PIK3CA MUT",4.14 µM
same,Category,SKBR3,Resistant (resistant (GI50>1.0 μM))
same,GI50,"SKBR3; Homo sapiens, SK-BR-3, Breast, PIK3CA WT",1.59 µM
same,Category,HS746T,Resistant (resistant (GI50>1.0 μM))
same,GI50,HS746T; [2],5.98 µM
same,Category,LK2,Sensitive (sensitive (GI50<=1.0 μM))
same,GI50,"LK2; Homo sapiens, LK-2, Lung, PIK3CA WT",0.588 µM
same,Category,KU1919,Resistant (resistant (GI50>1.0 μM))
same,GI50,"KU1919; Homo sapiens, KU-19-19, Bladder, PIK3CA WT",30 µM
same,Category,MDAMB436,Resistant (resistant (GI50>1.0 μM))
same,GI50,"MDAMB436; Homo sapiens, MDA-MB-436, Breast, PIK3CA WT",30 µM
same,Category,TCCSUP,Sensitive (sensitive (GI50<=1.0 μM))
same,GI50,"TCCSUP; Homo sapiens, TCC-SUP, Bladder, PIK3CA MUT",0.724 µM
same,Category,HCC95,Resistant (resistant (GI50>1.0 μM))
same,GI50,"HCC95; Homo sapiens, Lung, PIK3CA WT",3.11 µM
same,Category,OCIAML2,Resistant (resistant (GI50>1.0 μM))
same,GI50,"OCIAML2; Homo sapiens, OCI-AML2, Blood/lymph, PIK3CA WT",30 µM
same,Category,AMO1,Resistant (resistant (GI50>1.0 μM))
same,GI50,AMO1; [1],26.9 µM
same,Category,SKCO1,Resistant (resistant (GI50>1.0 μM))
same,GI50,"SKCO1; Homo sapiens, SK-CO-1, Colon, PIK3CA WT",1.13 µM
same,Category,BT20,Resistant (resistant (GI50>1.0 μM))
same,GI50,"BT20; Homo sapiens, BT-20, Breast, PIK3CA MUT",2.36 µM
same,Category,CAPAN1,Resistant (resistant (GI50>1.0 μM))
same,GI50,"CAPAN1; Homo sapiens, CAPAN-1, Pancreas, PIK3CA WT",30 µM
same,Category,SNU484,Resistant (resistant (GI50>1.0 μM))
same,GI50,"SNU484; Homo sapiens, SNU-484, Stomach, PIK3CA WT",1.79 µM
same,Category,NUGC3,Resistant (resistant (GI50>1.0 μM))
same,GI50,"NUGC3; Homo sapiens, NUGC-3, Stomach, PIK3CA WT",24.2 µM
same,Category,SNU886,Resistant (resistant (GI50>1.0 μM))
same,GI50,"SNU886; Homo sapiens, SNU-886, Liver, PIK3CA WT",15.6 µM
same,Category,A2058,Resistant (resistant (GI50>1.0 μM))
same,GI50,"A2058; Homo sapiens, Skin, PIK3CA WT",30 µM
same,Category,HLF,Resistant (resistant (GI50>1.0 μM))
same,GI50,"HLF; Homo sapiens, Liver, PIK3CA WT",30 µM
same,Category,NOMO1,Resistant (resistant (GI50>1.0 μM))
same,GI50,"NOMO1; Homo sapiens, NOMO-1, Blood/lymph, PIK3CA WT",2.17 µM
same,Category,SNU5,Resistant (resistant (GI50>1.0 μM))
same,GI50,"SNU5; Homo sapiens, SNU-5, Stomach, PIK3CA WT",21.2 µM
same,Category,COLO320DM; COLO320DM,Resistant (resistant (GI50>1.0 μM))
same,GI50,"COLO320DM; Homo sapiens, COLO 320DM",2.51 µM
same,Category,HT29,Resistant (resistant (GI50>1.0 μM))
same,GI50,"HT29; Homo sapiens, HT-29, Colon, PIK3CA MUT",5.48 µM
same,Category,2313287,Resistant (resistant (GI50>1.0 μM))
same,GI50,2313287; [2],1.34 µM
same,Category,1A6,Resistant (resistant (GI50>1.0 μM))
same,GI50,"1A6; Homo sapiens, Bladder, PIK3CA WT",30 µM
same,Category,CALU3,Resistant (resistant (GI50>1.0 μM))
same,GI50,"CALU3; Homo sapiens, Calu-3, Lung, PIK3CA WT",1.3 µM
same,Category,QGY7703,Resistant (resistant (GI50>1.0 μM))
same,GI50,"QGY7703; Homo sapiens, QGY-7703, Liver, PIK3CA WT",11.1 µM
same,Category,H1299,Resistant (resistant (GI50>1.0 μM))
same,GI50,"H1299; Homo sapiens, NCI-H1299, Lung, PIK3CA WT",30 µM
same,Category,HCCC9810,Resistant (resistant (GI50>1.0 μM))
same,GI50,"HCCC9810; Homo sapiens, Bile duct, PIK3CA WT",10 µM
same,Category,COLO205,Resistant (resistant (GI50>1.0 μM))
same,GI50,"COLO205; Homo sapiens, COLO 205, Colon, PIK3CA WT",8.93 µM
same,Category,MKN1,Resistant (resistant (GI50>1.0 μM))
same,GI50,"MKN1; Homo sapiens, MKN-1, Stomach, PIK3CA MUT",1.58 µM
same,Category,BEL7405,Resistant (resistant (GI50>1.0 μM))
same,GI50,"BEL7405; Homo sapiens, Liver, PIK3CA WT",8.11 µM
same,Category,BT549,Resistant (resistant (GI50>1.0 μM))
same,GI50,"BT549; Homo sapiens, BT-549, Breast, PIK3CA WT",17.4 µM
same,Category,HPAC,Resistant (resistant (GI50>1.0 μM))
same,GI50,"HPAC; Homo sapiens, Pancreas, PIK3CA WT",2.16 µM
